Tests used:
[1] = test system: Pseudomonas aeruginosa ATCC 15442; experiment: MIC and MBC determination in Mueller-Hinton Broth; type: cell-based; details: no-growth tubes subcultured on TSA, 37±2° C., 20-24 hours
Procedure: Efficacy of 9-decenoic acid and the methyl ester of 9-decenoic acid against Pseudomonas aeruginosa ATCC 15442, Escherichia coli 0157:H7 ATCC 43895 and Candida albicans ATCC 10231 was measured through the determination of the minimum inhibitory concentration (MIC) and minimum bacteriocidal concentration (MBC) using the procedures in the Federal Register, June 1994 and the present NCCLS M11-A4 protocol.
Stock cultures of each organism were transferred onto Mueller-Hinton Agar (MHA) plates and incubated for 24±2 hours at 37±2° C. On the day of the test, the top of at least three to five well-isolated colonies were transferred via wire loop to a tube containing 4 to 5 ml of Trypticase Soy Broth (TSB). The TSB culture was incubated for 2 to 6 hours and turbidity was adjusted with sterile saline to achieve the turbidity of the 0.5 McFarland Standard.
The concentrated 9-decenoic acid was diluted 1:40 in Mueller-Hinton Broth (MHB) to yield a 2.5% stock solution. The test solution of the methyl ester of 9-decenoic acid was formulated in the same manner. For each organism, 12 dilutions of the 9-decenoic acid and the methyl ester of 9-decenoic acid in MHB were prepared ranging from 0.2500 to 0.0005%. A 2-ml aliquot of appropriately diluted 9-decenoic acid or the methyl ester of 9-decenoic acid solution was placed in each tube. Each tube was inoculated with 0.05 ml of a 1:10 dilution of one challenge organism. Tubes were incubated at 37±2° C. for 20-24 hours and observed for growth or no growth. […] Controls were run for sterility, viability and organism confirmation. It was determined that all cultures were viable and pure.
The MBC was defined as the concentration of 9-decenoic acid or the methyl ester of 9-decenoic acid that completely eradicated viable organisms from the test system.

[2] = test system: Aureobasidium pullulans (ATCC 12536); experiment: MIC on Potato Dextrose Agar surface; type: cell-based; details: PDA agar, 25-30° C., least concentration that completely inhibited growth
Procedure: The efficacy of antimicrobial compositions in accordance with aspects of the invention against the following organisms was determined as follows. The following organisms were incubated in the presence of varying concentrations of 9-decenoic acid (9-DA) on an agar surface: Aspergillus parasiticus (ATCC 56857), Trichoderma virens (ATCC 9645), Aureobasidium pullulans (ATCC 12536), Aspergillus flavus (ATCC 96045), Cladosporium cladosporiodes (ATCC 16022), Aspergillus flavus (ATCC 5917), Aspergillus oryzae (ATCC 10124), Aspergillus parasiticus (ATCC 13539), Ulocladium atrum (ATCC 52426), Candida albicans (ATCC 11651), Alternaria alternata (ATCC 52170), Stachybotrys chartarum (ATCC 16026), Aspergillus niger (ATCC 11414).
Fungal spores were hydrated in 0.1% Tween 80 and then plated onto Potato Dextrose Agar (PDA) (Difco # 213400; Becton, Dickinson and Company, Sparks, Md.) and incubated at 25-30° C. for six (6) days. The spores were washed from the surface with 5 ml of 0.1% Tween 80 and enumerated.
PDA plates were prepared according to the manufacturer's instructions through sterilization. The agar was tempered to approximately 50° C. and was filter sterilized. […]
The agar plates were inoculated with the spore solution to achieve 10^2 spores/plate. […] The percent coverage of growth on the agar surface was recorded at each sample point.

C=CCCCCCCCC(=O)O [9-decenoic acid]
MBC [1]: 0.1250%
MIC [2]: 0.01%
